Test results reported in patent US20070202047A1, “Polyamine-substituted ligands for use as contrast agents” (priority 2006, published 2007).

Test system: human melanocytes
Assay: Intracellular uptake of gadolinium complexes (ICP-MS)
Format: cell-based
Details: 24-h incubation (FIG. 2C)
Method: Cell culture. B16 melanoma cells (mouse) and MH3924A Morris hepatoma cells (rat) were obtained from the German Cancer Research Center (DKFZ) tumor bank and grown at 37° C. as stock cultures in RPMI 1640 supplemented with 10% fetal calf serum and 1% glutamine as standard medium under a 5% CO2 atmosphere (all components: Pan Biotech GmbH, Aidenbach, Germany). For contrast agent uptake studies 10^6 cells were inoculated into 25 cm^2 culture flasks (BD Biosciences, Bedford, USA) and grown for 24 h in 10 mL of the standard culture medium. […] Afterwards the medium was removed, cells were trypsinated, washed twice, resuspended in culture medium and counted (typical yields: 3.5-6 million cells). […] After digestion the cells were washed twice with PBS, resuspended in culture medium and counted (typical yields: 6×10^5 cells per tube). The intracellular gadolinium content was determined by ICP-MS as described below.
ICP-MS. […] To each sample 100 μL of an aqueous solution of rhodium chloride (1 μg/mL) were added so that Rh-103 could be used as an internal quantification standard. […] The gadolinium concentrations were determined using standard curves created prior to cell analyses. For each uptake incubation condition triplicate cell samples were analyzed, and Gd content for each sample was recorded as the mean of two MS determinations.

## NCCCCN(CCCN)C(=O)CN(CCN(CCN(CC(=O)[O-])CC(=O)N(CCCN)CCCCN)CC(=O)[O-])CC(=O)[O-].[Gd+3] [Gd-6.1]
  factor of higher uptake into B16 melanoma versus human melanocytes: ~2
